The values that follow are results of earlier work, collected in US12622900B2, “Methods and compositions for treating gastric ulcers” (LUODA PHARMA LIMITED, priority 2015, dated 2026).

Data set [1] has as its system gastric acid.
Data set [2] relates to gastric acid secretion. The following applies: single intramuscular injection at 1 mg/kg bodyweight, omeprazole monohydrate dissolved in saline.
The test system of data set [3] is gastric ulcers. The following applies: traditional oral dosing.

Take `COc1ccc2nc([S+]([O-])Cc3ncc(C)c(OC)c3C)[nH]c2c1` (stereo not drawn) [omeprazole, 6-methoxy-2-[(4-methoxy-3,5-dimethylpyridin-2-yl)methanesulfinyl]-1H-1,3-benzodiazole]: the “Period for which the dose is effective” value in data set [1] (1-2 g daily oral dose to horses) is 12 to 24 h. Besides, the “Duration of adequate gastric acid suppression” value in data set [1] (oral omeprazole preparations in horses (Merritt et al)) was 12 h. In addition, in data set [2], the “Duration of pentagastrin-stimulated acid suppression” value was 12 h and the “Duration of reduced basal acid secretion” value is “around 23 hours”. Further, the Gastric ulcers healed in data set [3] (in 28-35 days) is reported as 25%. Further, in data set [3] (within a 28 day treatment period), the “Squamous ulcers that will heal” value is on record as 70-80%.
